Data from patent publication US9777039B2, “Somatostatin analogs and dimers thereof” (Ipsen Pharma S.A.S., priority 2012, dated 2017).
Read-outs that look alike come from different tables or passages of the source. Residues, ends and D or L forms follow the SMILES beside them.

Legend:
hSSTR1 = biological target: T1, hSSTR1 (Homo sapiens, UniProt P30872); test: Somatostatin receptor radioligand binding assay, hSSTR1; conditions: CHO-K1 cell membranes, [125I-Tyr11]-SRIF-14; read-out: hSSTR1 Ki (nM) ± SEM
T1 construct: expressed in transfected cells; membranes
Description: (§1) The affinities of a test compound for the human somatostatin receptors were determined by radioligand binding assays in CHO-K1 cells stably transfected with each of the somatostatin receptor subtypes, hSSTR1-5. The cDNA coding sequences of the hSSTR1 (GenBank accession No. NM_001049.1), hSSTR2 (GenBank accession No. XM_012697.1), hSSTR3 (GenBank accession No. XM_009963.1), hSSTR4 (GenBank accession No. NM_001052.1) and hSSTR5 (GenBank accession No. XM_012565.1) were subcloned into the mammalian expression vector pcDNA3.1 (Life Technologies). Clonal cell lines stably expressing each of the somatostatin receptors were obtained by transfection into CHO-K1 cells (ATCC) and subsequently selected with culture media containing 0.8 mg/mL of G418 (Life Technologies).
(§2) Membranes for in vitro receptor binding assays were obtained by the following procedures. CHO-K1 cells expressing one of the somatostatin receptors were homogenized in ice-cold buffer with 10 mM Tris-HCl, 5 mM EDTA, 3 mM EGTA, 1 mM phenylmethylsuphonyl fluoride, pH 7.6, using Polytron PT10-35GT (Kinematica) at 18,000 rpm for 30 seconds and centrifuged at 500×g for 10 minutes. The supernatant containing the plasma membranes was centrifuged at 100,000×g for 30 minutes and the pellet was resuspended in buffer containing 20 mM glycine-glycine, 1 mM MgCl2, 250 mM sucrose, pH 7.2, for storage at −80° C. […]

hSSTR2 [1] = biological target: T2, hSSTR2 (Homo sapiens, UniProt P30874); test: Somatostatin receptor radioligand binding assay, hSSTR2
T2 construct: expressed in transfected cells
Description: as §1
Membranes for in vitro receptor binding assays were obtained by the following procedures. CHO-K1 cells expressing one of the somatostatin receptors were homogenized in ice-cold buffer with 10 mM Tris-HCl, 5 mM EDTA, 3 mM EGTA, 1 mM phenylmethylsuphonyl fluoride, pH 7.6, using Polytron PT10-35GT (Kinematica) at 18,000 rpm for 30 seconds and centrifuged at 500×g for 10 minutes. The supernatant containing the plasma membranes was centrifuged at 100,000×g for 30 minutes and the pellet was resuspended in buffer containing 20 mM glycine-glycine, 1 mM MgCl2, 250 mM sucrose, pH 7.2, for storage at −80° C.
For the hSSTR1, 2 and 5 assays, membranes and various concentrations of test compounds were incubated in 96-well plates for 60 minutes at 25° C. with 0.05 nM [^125I-Tyr^11]-SRIF-14 (for hSSTR1; PerkinElmer Life Science), 0.05 nM [^125I-Tyr]-seglitide (for hSSTR2; PerkinElmer Life Science) or 0.05 nM [^125I-Tyr]-DPhe-cyclo(Cys-Tyr-DTrp-Lys-Val-Cys)-Thr-NH2 (for hSSTR5; PerkinElmer Life Science) in 50 mM HEPES, 0.2% BSA, 0.1 mM MgCl2, pH 7.5.
The incubations were terminated by rapid filtration through GF/C glass microfiber filter plates (pre-wet with 0.3% polyethyleneimine and 0.1% BSA) using a 96-well cell harvester (Brandel). Plates were washed six times with 1 mL/well aliquots of ice-cold buffer containing 50 mM Tris buffer, pH 7.7. Specific binding is defined as the total radioligand bound minus the bound in the presence of 1000 nM SRIF-14.

hSSTR3 = biological target: T3, hSSTR3 (Homo sapiens, UniProt P32745); test: Somatostatin receptor radioligand binding assay, hSSTR3; conditions: CHO-K1 cell membranes, [125I-Tyr11]-SRIF-14; read-out: hSSTR3 Ki (nM) ± SEM
T3 construct: expressed in transfected cells; membranes
Description: as §1, §2

hSSTR4 = biological target: T4, hSSTR4 (Homo sapiens, UniProt P31391); test: Somatostatin receptor radioligand binding assay, hSSTR4; conditions: CHO-K1 cell membranes, [125I-Tyr11]-SRIF-14; read-out: hSSTR4 Ki (nM) ± SEM
T4 construct: expressed in transfected cells; membranes
Description: as §1, §2

hSSTR5 = biological target: T5, hSSTR5 (Homo sapiens, UniProt P35346); test: Somatostatin receptor radioligand binding assay, hSSTR5; conditions: CHO-K1 cell membranes, [125I-Tyr]-DPhe-cyclo(Cys-Tyr-DTrp-Lys-Val-Cys)-Thr-NH2; read-out: hSSTR5 Ki (nM) ± SEM
T5 construct: expressed in transfected cells; membranes
Description: as §1, §2

hSSTR2 [2] = biological target: T2, hSSTR2; test: Intracellular calcium mobilization assay (FLIPR Calcium 4 assay kit); type: cell-based; conditions: for Emax: maximal effect in percentage of the maximal effect of SRIF-14, read-out: hSSTR2 % Emax ± SEM
Description: The ability of select compounds according to the present invention to activate hSSTR2 was determined by the intracellular calcium mobilization assay using FLIPR Calcium 4 assay kit (Molecular Devices).
Cells expressing hSSTR2 were plated in 384-well microplates in tissue culture media and incubated for 16-24 hours at 37° C. in a humidified atmosphere with 5% CO2. Medium was replaced by loading buffer containing Hank's buffered saline, 20 mM HEPES, 2.5 mM probenecid and Calcium 4 dye, and the plates were incubated at 37° C. for 60 minutes. Various concentrations of the test compounds were applied to the cells during the fluorescence measurement with excitation at 485 nm and emission at 525 nm using the Flexstation III microplate reader (Molecular Devices).
The half maximal effective concentrations (EC50) were calculated by fitting data to sigmoid dose-response curves using GraphPad Prism version 5.03 (GraphPad Software, San Diego, Calif., USA). % Emax values represent the maximal effect of the test compound in percentage of the maximal effect of SRIF-14.
Reference Compound No. A, whose chemical name and corresponding structure are provided in Table V, was synthesized and its ability to activated hSSTR2 was determined by the same intracellular calcium mobilization assays using FLIPR Calcium 4 assay kit (Molecular Devices) and under the same experimental conditions for the test compounds, as described hereinabove, and the results thereof are provided in Table VI.

[3] = CHO-K1 cell membranes, [125I-Tyr]-seglitide, read-out: hSSTR2 Ki (nM) ± SEM
[4] = cells expressing hSSTR2, calcium mobilization, read-out: hSSTR2 EC50 (nM) ± SEM

T2 sequence (P30874 whole entry): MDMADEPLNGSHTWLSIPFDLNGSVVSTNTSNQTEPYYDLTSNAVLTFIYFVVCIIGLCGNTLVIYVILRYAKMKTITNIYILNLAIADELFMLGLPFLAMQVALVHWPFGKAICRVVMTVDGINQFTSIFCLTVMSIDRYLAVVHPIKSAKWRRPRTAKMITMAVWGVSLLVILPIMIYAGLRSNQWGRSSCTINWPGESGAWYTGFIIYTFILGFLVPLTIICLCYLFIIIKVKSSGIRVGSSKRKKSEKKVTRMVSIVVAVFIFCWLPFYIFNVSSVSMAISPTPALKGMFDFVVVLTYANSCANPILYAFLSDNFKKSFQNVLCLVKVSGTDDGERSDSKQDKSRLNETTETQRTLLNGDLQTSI
T3 sequence (P32745 whole entry): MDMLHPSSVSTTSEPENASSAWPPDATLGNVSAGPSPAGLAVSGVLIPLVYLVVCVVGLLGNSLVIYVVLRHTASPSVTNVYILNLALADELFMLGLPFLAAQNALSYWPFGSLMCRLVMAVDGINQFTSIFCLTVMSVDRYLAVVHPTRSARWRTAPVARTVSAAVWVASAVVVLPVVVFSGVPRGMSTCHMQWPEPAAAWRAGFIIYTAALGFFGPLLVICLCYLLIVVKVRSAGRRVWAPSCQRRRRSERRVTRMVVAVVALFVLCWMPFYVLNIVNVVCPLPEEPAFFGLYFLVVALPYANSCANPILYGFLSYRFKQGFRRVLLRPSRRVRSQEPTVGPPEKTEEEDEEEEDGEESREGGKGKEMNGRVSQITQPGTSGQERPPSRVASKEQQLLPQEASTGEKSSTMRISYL
T1 sequence (P30872 whole entry): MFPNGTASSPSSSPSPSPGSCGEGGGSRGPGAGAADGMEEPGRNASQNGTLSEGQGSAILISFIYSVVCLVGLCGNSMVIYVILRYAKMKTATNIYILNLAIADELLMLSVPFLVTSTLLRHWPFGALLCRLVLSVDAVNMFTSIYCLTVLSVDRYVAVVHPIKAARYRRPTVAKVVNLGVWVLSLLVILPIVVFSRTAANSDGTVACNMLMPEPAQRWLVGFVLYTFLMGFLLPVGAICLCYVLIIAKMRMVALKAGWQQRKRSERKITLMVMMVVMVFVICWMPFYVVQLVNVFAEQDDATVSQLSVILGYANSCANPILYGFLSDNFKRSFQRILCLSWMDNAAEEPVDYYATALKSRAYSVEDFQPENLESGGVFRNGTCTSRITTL
T4 sequence (P31391 whole entry): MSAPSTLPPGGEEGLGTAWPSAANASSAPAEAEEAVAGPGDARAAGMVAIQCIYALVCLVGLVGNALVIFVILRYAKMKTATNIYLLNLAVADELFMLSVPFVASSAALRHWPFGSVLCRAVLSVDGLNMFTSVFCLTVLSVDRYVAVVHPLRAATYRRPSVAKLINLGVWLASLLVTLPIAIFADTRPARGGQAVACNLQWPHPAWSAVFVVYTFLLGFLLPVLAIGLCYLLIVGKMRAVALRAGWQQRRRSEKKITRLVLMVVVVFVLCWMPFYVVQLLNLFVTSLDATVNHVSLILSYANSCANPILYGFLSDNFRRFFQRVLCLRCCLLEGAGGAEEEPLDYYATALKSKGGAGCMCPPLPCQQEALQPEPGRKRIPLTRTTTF
T5 sequence (P35346 whole entry): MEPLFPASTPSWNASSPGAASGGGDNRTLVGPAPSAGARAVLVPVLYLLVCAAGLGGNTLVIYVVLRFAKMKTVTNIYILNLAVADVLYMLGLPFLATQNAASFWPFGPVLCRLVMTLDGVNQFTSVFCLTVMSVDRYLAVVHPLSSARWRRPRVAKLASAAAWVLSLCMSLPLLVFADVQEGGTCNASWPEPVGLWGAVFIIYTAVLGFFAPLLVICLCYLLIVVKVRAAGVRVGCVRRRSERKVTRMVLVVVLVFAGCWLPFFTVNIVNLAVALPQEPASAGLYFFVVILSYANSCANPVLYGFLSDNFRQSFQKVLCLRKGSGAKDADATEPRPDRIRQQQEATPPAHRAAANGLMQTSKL

For `C[C@@H](O)[C@@H]1NC(=O)[C@H](CCCCN)NC(=O)[C@@H](Cc2c[nH]c3ccccc23)NC(=O)[C@H](Cc2ccncc2)NC(=O)[C@H](Cc2ccccc2)NC(=O)[C@H](CCCNC(=N)N)NC(=O)[C@H](N)CCCCNC(=O)[C@H](Cc2ccccc2)NC1=O` [Compound 1, cyclo(DLys-Arg-Phe-4Pal-DTrp-Lys-Thr-Phe)] (HELM PEPTIDE1{[dK].R.F.[O=C([C@H](Cc1ccncc1)N[*:1])[*:2]].[dW].K.T.F}$PEPTIDE1,PEPTIDE1,1:R3-8:R2$$$V2.0), the Ki (hSSTR1) was greater than 1000 nM, the Ki (hSSTR2 [1]; [3]) was 0.47 ± 0.03 nM and the Ki (hSSTR3) was 16.3 ± 7.1 nM. The Ki (hSSTR4) was 76.3 ± 12.6 nM, the Ki (hSSTR5) was 0.31 ± 0.1 nM and the EC50 (hSSTR2 [2]; [4]) was 9.1 ± 3.9 nM. For the same compound, the Emax (hSSTR2 [2]) was 96.3 ± 5.5%.
Compound `C[C@@H](O)[C@@H]1NC(=O)[C@H](CCCCN)NC(=O)[C@@H](Cc2c[nH]c3ccccc23)NC(=O)[C@H](Cc2ccncc2)NC(=O)[C@H](Cc2ccccc2)NC(=O)[C@H](CCCNC(=N)N)NC(=O)[C@H](NC[C@H](Cc2ccc(O)cc2)NC(=O)CCc2cn(CC(=O)N[C@H](CN[C@@H]3CCCCNC(=O)[C@H](Cc4ccccc4)NC(=O)[C@H]([C@@H](C)O)NC(=O)[C@H](CCCCN)NC(=O)[C@@H](Cc4c[nH]c5ccccc45)NC(=O)[C@H](Cc4ccncc4)NC(=O)[C@H](Cc4ccccc4)NC(=O)[C@H](CCCNC(=N)N)NC3=O)Cc3ccc(O)cc3)nn2)CCCCNC(=O)[C@H](Cc2ccccc2)NC1=O` [Compound 5, 1-[(ethan-2-oyl)-Tyr-psi(CH2NH)-cyclo(DLys-Arg-Phe-4Pal-DTrp-Lys-Thr-Phe)],4-[(propan-3-oyl)-Tyr-psi(CH2NH)-cyclo(DLys-Arg-Phe-4Pal-DTrp-Lys-Thr-Phe)]-1,2,3-triazole] has a Ki (hSSTR2 [1]) of 0.08 nM, an EC50 (hSSTR2 [2]) of 3.3 nM and an Emax (hSSTR2 [2]) of 88.6 ± 1.1%.
Compound `C[C@@H](O)[C@@H]1NC(=O)[C@H](CCCCN)NC(=O)[C@@H](Cc2c[nH]c3ccccc23)NC(=O)[C@H](Cc2ccncc2)NC(=O)[C@H](Cc2ccccc2)NC(=O)[C@H](CCCNC(=N)N)NC(=O)[C@H](NC[C@@H](N)Cc2ccc(O)cc2)CCCCNC(=O)[C@H](Cc2ccccc2)NC1=O` [Compound 21, Tyr-psi(CH2NH)-cyclo(DLys-Arg-Phe-4Pal-DTrp-Lys-Thr-Phe)] has a Ki (hSSTR1) of 271 ± 160 nM, a Ki (hSSTR2 [1]; [3]) of 0.02 ± 0.02 nM and a Ki (hSSTR3) of 5 nM. It also gave a Ki (hSSTR4) of 112 ± 18.6 nM, a Ki (hSSTR5) of 0.32 nM and an EC50 (hSSTR2 [2]; [4]) of 4.4 ± 3.7 nM. It also gave an Emax (hSSTR2 [2]) of 103 ± 0.2%.
In the case of `C[C@@H](O)[C@@H]1NC(=O)[C@H](CCCCN)NC(=O)[C@@H](Cc2c[nH]c3ccccc23)NC(=O)[C@H](Cc2ccccc2)NC(=O)[C@H](Cc2ccccc2)NC(=O)[C@H](CCCNC(=N)N)NC(=O)[C@H](NC[C@H](Cc2ccc(O)cc2)NC(=O)CCc2cn(CC(=O)N[C@H](CN[C@@H]3CCCCNC(=O)[C@H](Cc4ccc(F)cc4)NC(=O)[C@H]([C@@H](C)O)NC(=O)[C@H](CCCCN)NC(=O)[C@@H](Cc4c[nH]c5ccccc45)NC(=O)[C@H](Cc4ccccc4)NC(=O)[C@H](Cc4ccccc4)NC(=O)[C@H](CCCNC(=N)N)NC3=O)Cc3ccc(O)cc3)nn2)CCCCNC(=O)[C@H](Cc2ccc(F)cc2)NC1=O` [Compound 6, 1-[(ethan-2-oyl)-Tyr-psi(CH2NH)-cyclo(DLys-Arg-Phe-Phe-DTrp-Lys-Thr-4FPhe)],4-[(propan-3-oyl)-Tyr-psi(CH2NH)-cyclo(DLys-Arg-Phe-Phe-DTrp-Lys-Thr-4FPhe)]-1,2,3-triazole], the Ki (hSSTR2 [1]) is reported as 0.38 nM, the EC50 (hSSTR2 [2]) is reported as 74.6 ± 15.6 nM and the Emax (hSSTR2 [2]) is reported as 93.6 ± 4.1%.
With `C[C@@H](O)[C@@H]1NC(=O)[C@H](CCCCN)NC(=O)[C@@H](Cc2c[nH]c3ccccc23)NC(=O)[C@H](Cc2ccccc2)NC(=O)[C@H](Cc2ccccc2)NC(=O)[C@H](CCCNC(=N)N)NC(=O)[C@H](NC[C@H](Cc2ccc(O)cc2)NC(=O)CCc2cn(CC(=O)N[C@H](CN[C@@H]3CCCCNC(=O)[C@H](Cc4ccc(O)cc4)NC(=O)[C@H]([C@@H](C)O)NC(=O)[C@H](CCCCN)NC(=O)[C@@H](Cc4c[nH]c5ccccc45)NC(=O)[C@H](Cc4ccccc4)NC(=O)[C@H](Cc4ccccc4)NC(=O)[C@H](CCCNC(=N)N)NC3=O)Cc3ccc(O)cc3)nn2)CCCCNC(=O)[C@H](Cc2ccc(O)cc2)NC1=O` [Compound 7, 1-[(ethan-2-oyl)-Tyr-psi(CH2NH)-cyclo(DLys-Arg-Phe-Phe-DTrp-Lys-Thr-Tyr)],4-[(propan-3-oyl)-Tyr-psi(CH2NH)-cyclo(DLys-Arg-Phe-Phe-DTrp-Lys-Thr-Tyr)]-1,2,3-triazole] the Ki (hSSTR2 [1]) was 0.17 nM, the EC50 (hSSTR2 [2]) was 28.5 ± 11.5 nM and the Emax (hSSTR2 [2]) was 97.4 ± 1.2%.
